According to patent US20160022708A1, “METHODS AND COMPOSITIONS FOR THE TREATMENT OF GLUTAMINE-ADDICTED CANCERS” (ST. JUDE CHILDREN'S RESEARCH HOSPITAL, priority 2013, published 2016):
Structures can show the parent of a compound that is named as a salt. Where two headings read alike, the source gives them in different places.

What was measured:
[1] = test system: neuroblastoma and Ewing's sarcoma cell lines; test: CyQuant viability assay, panel of NB and Ewing's sarcoma cell lines; format: cell-based; settings: for efficacy as single agent in vitro: single agents; for effectiveness on cancer cell lines: broad ranges of drug concentrations; for single agent effect: more glutamine-addicted cell lines such as IMR32, Kelly, RD-ES and SK-ES-1
Description: To survey the effects of DON on neuroblastomas and Ewing's sarcomas, DON was tested on six neuroblastoma (SK-N-AS, SK-N-BE(2), SK-N-FI, IMR32, Kelly, and SH-SySy) and three Ewing's sarcoma cell lines (SK-N-MC, RD-ES and SK-ES-1) and a control immortalized foreskin fibroblast cell line (BJ). Using the CyQuant viability assay, the respective sensitivities of each cell line to DON were determined after 72 hrs of treatment in a universal media (EMEM, 10% FBS, 0.5 mM glutamine) containing physiological levels of glutamine and glucose. […] More strikingly, all three Ewing's sarcoma cell lines were especially sensitive to DON with an 80% loss in cell viability (FIG. 1B). […]
(§1) 6-diazo-5-oxo-L-norleucine (Sigma Aldrich, St. Louis, Mo.) and epigallocatechin-3-gallate (Sigma Aldrich, St. Louis, Mo.) were solubilized in water, aminooxyacetate (Sigma Aldrich, St. Louis, Mo.), obatoclax mesylate (Selleckchem,), and ABT-263 (Sellekchem) were dissolved in 100% dimethyl sulfoxide (DMSO). In a 96-well tissue culture plate, 5×10^4 cells were plated in 100 ul of media containing EMEM, 10% FBS and 0.5 mM glutamine per well. Four hours after plating drugs were diluted to a 2× concentration in plating media and added to wells. Plates were incubated for 72-hrs and then submitted to CyQuant Cell Direct Proliferation Assay (Life Technologies) according to manufacturer's instructions and read with a Synergy HT Multi-mode microplate reader (Biotek).

[2] = test system: BJ foreskin fibroblasts; test: CyQuant viability assay, control cell line; format: cell-based
Description: (§2) To survey the effects of DON on neuroblastomas and Ewing's sarcomas, DON was tested on six neuroblastoma (SK-N-AS, SK-N-BE(2), SK-N-FI, IMR32, Kelly, and SH-SySy) and three Ewing's sarcoma cell lines (SK-N-MC, RD-ES and SK-ES-1) and a control immortalized foreskin fibroblast cell line (BJ). Using the CyQuant viability assay, the respective sensitivities of each cell line to DON were determined after 72 hrs of treatment in a universal media (EMEM, 10% FBS, 0.5 mM glutamine) containing physiological levels of glutamine and glucose. […] More strikingly, all three Ewing's sarcoma cell lines were especially sensitive to DON with an 80% loss in cell viability (FIG. 1B).
as §1

[3] = in vivo; cited from earlier work
[4] = test system: SK-N-FI cells; test: CyQuant viability assay; format: cell-based; settings: DON 72 hrs; EMEM, 10% FBS, 0.5 mM glutamine
Description: as §2
as §1, with “Four hours after plating drugs were diluted to a 2× concentration in plating media and added to wells.” left out

[5] = Tolerability in tumor-bearing mice (weight loss, length of treatment); format: in vivo
Description: (§3) DON's effects on NB and EWS tumors in vivo were assessed. Subcutaneous tumors for the neuroblastoma cell lines SK-N-AS and SK-N-BE(2) as well as the Ewing's Sarcoma cell lines SK-N-MC and SK-ES-1 were grown to at least 200 mm^3 and were then randomized into either DON or control treatment groups. Mice were then treated with 100 mg/kg of DON or water control twice a week by intraperitoneal (I.P.) injection, equivalent to a twice a week dose of 300 mg/m^2 in children. Previous work has shown that a dose as high as 520 mg/m^2 was safely achievable in children. […] To attempt to extend the course of treatment, mice either were treated with half the dose at 50 mg/kg twice a week or with a once weekly injection of 100 mg/kg (1×/wk). The effectiveness of the original drug regimen was compared to the two new treatment schedules using mice with subcutaneous tumors from the most DON-resistant (SK-N-FI) and the most DON-sensitive (SK-N-MC) cell line in vitro. This experiment would allow for the determination whether the in vitro data was predictive of differences in response to DON in vivo. Both of the new drug regimens allowed a significant extension in length of treatment from 11 days to greater than 24 days. However, only the 50 mg/kg dose was effective against both tumor types. […] In addition, the SK-N-BE2 and IMR32 neuroblastoma cell lines were tested at the 50 mg/kg dose in mice with subcutaneous tumors. The 50 mg/kg dose was effective against both tumor types (FIG. 7 A-C).
For subcutaneous tumor experiments, cells were injected into the hind flank of either 6-8 week old athymic (nu/nu) mice (Charles River) or into Rag2^−/−; gamma c^−/− mice (kindly provided by Dr. Shannon McKinney-Freeman). No difference in tumor growth kinetics was observed between different strains. SK-N-AS, SK-N-MC, and SK-ES-1 cells were injected at 2×10^6 cells per mouse in 100 μl total volume. […] Tumor size was measured by digital caliper, and tumor volume was calculated using the formula 1/2*(length*width^2). […]

[6] = test system: SK-N-AS cells; test: Cell cycle analysis by BrdU labeling (FACS); format: cell-based; settings: 100 μM DON 72 hrs
Description: (§4) To investigate the effects of DON on proliferation and cell death in vivo, additional NB tumor studies using SK-N-AS and SK-N-BE(2) cells were set up. Tumors in each cohort were allowed to grow to ˜1000 mm^3 before they underwent one round of DON treatment at 100 mg/kg of DON twice a week. On day 4, the second dose of DON was given 6-hrs prior and BrdU injected 2 hours prior to harvesting the tumors for histology (FIG. 3A).
(§5) In vitro cell cultures were pulse-labeled with 10 μM BrdU (BD Biosciences) for 90 minutes at 37° C., and then fixed and stained with Anti-BrdU-FITC antibody and 7-AAD (BD Biosciences, #559619), according to manufacturer's protocol. Stained samples were then analyzed by the Flow Cytometry and Cell Sorting Shared Resource facility at St. Jude Children's Research Hospital.

[7] = test system: SK-N-BE(2) cells; test: Cell cycle analysis by BrdU labeling (FACS); format: cell-based; settings: 100 μM DON 72 hrs
Description: as §4, §5

[8] = children, previous work; cited from earlier work
[9] = test system: SK-N-AS cells; test: Annexin / propidium iodide staining (FACS); format: cell-based; settings: 100 μM DON 72 hrs
Description: as §4
(§6) To measure early apoptosis, cells were plated in EMEM media containing 0.5 mM L-glutamine, 10% FBS, and 1% Penicillin/Streptomycin, then treated+/−100 μM DON for 72 hours. Both adherent and floating cells in the media were collected at harvest, and 3×10^5 cells were then stained with Annexin-V-FITC antibody for 15 minutes at room temperature. Cells were then counterstained with propidium iodide (9.1 μM final concentration) and filtered through a 40 μm nylon mesh. Immediately after staining, samples were analyzed by the Flow Cytometry and Cell Sorting Shared Resource facility at St. Jude Children's Research Hospital.

[10] = test system: SK-N-BE(2) cells; test: Annexin / propidium iodide staining (FACS); format: cell-based; settings: 100 μM DON 72 hrs
Description: as §4, §6

[11] = test system: Ewing's sarcoma cell lines (SK-N-MC, RD-ES and SK-ES-1); test: CyQuant viability assay, Ewing's sarcoma cell lines; format: cell-based; settings: all three Ewing's sarcoma cell lines; DON 72 hrs
Description: as §2
as §1, with “Four hours after plating drugs were diluted to a 2× concentration in plating media and added to wells.” left out

[12] = test system: SK-N-BE(2) tumors; test: IHC of BrdU and cleaved caspase-3 in tumors; format: in vivo, mice; settings: ~1000 mm^3 tumors, 100 mg/kg DON day 1 and day 4
Description: as §4
(§7) For in vivo labeling of proliferating cells, mice with subcutaneous SK-N-AS or SK-N-BE(2) tumors (1000 mm^3) were treated with DON and injected with BrdU (BD Biosciences). Mice were given an intraperitoneal (i.p.) injection of 100 mg/kg DON on day 1 and again on day 4. Four hours after the second dose of DON, mice were injected i.p. with 150 μl of 10 mg/ml BrdU. Tumor tissue was harvested 2 hours after addition of BrdU and samples were fixed in 10% formalin. Paraffin-embedded tissue sections were then stained for BrdU incorporation by the St. Jude Veterinary Pathology Core.

[13] = test system: SK-N-AS tumors; test: IHC of BrdU and cleaved caspase-3 in tumors; format: in vivo, mice; settings: ~1000 mm^3 tumors, 100 mg/kg DON day 1 and day 4
Description: as §4, §7

[14] = test system: SK-N-BE(2) tumors; test: Subcutaneous tumor growth; format: in vivo, mice
Description: as §3
(§8) For subcutaneous tumor experiments, cells were injected into the hind flank of either 6-8 week old athymic (nu/nu) mice (Charles River) or into Rag2^−/−; gamma c^−/− mice (kindly provided by Dr. Shannon McKinney-Freeman). No difference in tumor growth kinetics was observed between different strains. SK-N-AS, SK-N-MC, and SK-ES-1 cells were injected at 2×10^6 cells per mouse in 100 μl total volume. SK-N-BE(2) cells were injected in a 1:1 mix of cells and Matrigel (BD Biosciences) at a final concentration of 2×10^6 cells per mouse. Tumor size was measured by digital caliper, and tumor volume was calculated using the formula 1/2*(length*width^2). When tumors reached an average size of 200 mm^3 mice were randomized into treatment groups. On the day of treatment, mice were weighed then given an intraperitoneal (i.p.) injection of either 100 mg/kg DON, 50 mg/kg or water control. All animal experiments were performed in accordance with the guidelines established by IACUC.

[15] = test system: SK-N-AS tumors; test: Subcutaneous tumor growth; format: in vivo, mice; settings: 100 mg/kg twice a week I.P.
Description: as §3, §8

[16] = test system: SK-N-MC tumors; test: Subcutaneous tumor growth; format: in vivo, mice
Description: as §3, §8

[17] = test system: SK-ES-1 tumors; test: Subcutaneous tumor growth; format: in vivo, mice; settings: 100 mg/kg twice a week I.P.
Description: as §3, §8

[18] = test system: IMR32 tumors; test: Subcutaneous tumor growth; format: in vivo, mice; settings: 50 mg/kg twice weekly I.P.
Description: as §3, §8

[19] = test system: SK-N-FI tumors; test: Subcutaneous tumor growth; format: in vivo, mice; settings: 50 mg/kg twice a week I.P.
Description: as §3, §8

[20] = cited from earlier work

COC1=CC(c2cc3ccccc3[nH]2)=N/C1=C\c1[nH]c(C)cc1C [obatoclax mesylate]
efficacy as single agent in vitro [1]: some efficacy

CC1=C(/C=C/C(C)=C/C=C/C(C)=C/C(=O)Nc2ccc(O)cc2)C(C)(C)CCC1 [fenretinide, N-(4-hydroxyphenyl)retinamide]
toxicity to BJ cells [2]: non-toxic | effectiveness on cancer cell lines [1]: effective on all the cancer cell lines tested | bioavailability [3]: poor bioavailability

NOCC(=O)O [AOA, aminooxyacetate]
single agent effect [1]: effective as single agents

epigallocatechin-3-gallate [EGCG]
single agent effect [1]: effective as single agents

[N-]=[N+]=CC(=O)CC[C@H](N)C(=O)O [DON, 6-diazo-5-oxo-L-norleucine]
reduction in cell numbers [4]: 20% | length of treatment ([5]; 50 mg/kg twice a week or 100 mg/kg once weekly): greater than 24 days | weight loss in the mice ([5]; 100 mg/kg twice a week I.P.): caused weight loss | length of treatment ([5]; original regimen 100 mg/kg twice a week): 11 days | entry into the S-phase of the cell cycle [6]: reduced entry into the S-phase | entry into the S-phase of the cell cycle [7]: reduced entry into the S-phase | dose safely achievable [8]: ≤ 520 mg/m^2 | toxicity to BJ cells ([2]; broad ranges of drug concentrations): non-toxic | cell death [9]: increase in cell death | cell death [10]: increase in cell death | loss in cell viability [11]: 80% | sensitivity to DON ([1]; all cell lines except control BJ, 72 hrs): some sensitivity | effectiveness on cancer cell lines [1]: effective on all the cancer cell lines tested | loss in cell numbers ([1]; multiple cell lines, DON 72 hrs, 0.5 mM glutamine): greater than 60% | efficacy as single agent in vitro [1]: some efficacy | increase in caspase-3 cleavage [12]: greater than 2 fold | reduction in BrdU incorporation [12]: > 90% | caspase-3 cleavage [13]: no difference | reduction in BrdU incorporation [13]: > 90% | tumor growth ([14]; 50 mg/kg twice weekly I.P.): effective | tumor growth ([14]; 100 mg/kg twice a week I.P.): greatly reduced growth | tumor growth [15]: greatly reduced growth | tumor growth ([16]; 50 mg/kg twice a week I.P.): effective | tumor growth ([16]; 100 mg/kg twice a week I.P.): dramatically blocked growth | tumor growth [17]: dramatically blocked growth | tumor growth [18]: effective | tumor growth [19]: effective

CC1(C)CCC(c2ccc(Cl)cc2)=C(CN2CCN(c3ccc(C(=O)NS(=O)(=O)c4ccc(N[C@H](CCN5CCOCC5)CSc5ccccc5)c(S(=O)(=O)C(F)(F)F)c4)cc3)CC2)C1 [ABT-263, navitoclax]
toxicity to BJ cells [2]: non-toxic | effectiveness on cancer cell lines [1]: effective on all the cancer cell lines tested | efficacy as single agent in vitro [1]: some efficacy | oral bioavailability ([20]; in vivo, po): orally bioavailable | major adverse side effect ([20]; in vivo): thrombocytopenia | safety and tolerability ([20]; in vivo): safe and well-tolerated | tolerability ([20]; phase I and phase II clinical trials in adults): well tolerated
